# Source: patent US20260335323A1, “CHIMERIC MOLECULE” (UCL Business Ltd, priority 2023, published 2026)
# Tests used:
# MAX = experiment: Western blot, MAX levels in CAL51 cells; type: cell-based, human; conditions: 100 nM, 72 hours
# Procedure: All treatments with (+)-JQ1, NZ-147 or NZ-175 were performed at 100 nM concentration over 72 hours.
# Cells were homogenised in protein lysis buffer consisting of 0.1 M Tris pH 8.0, 0.1 M NaCl, 5% glycerol, IGEPAL® CA-630 (#18896. Sigma-Aldrich) and 5 mM EDTA, 0.1 M N-ethyl maleimide (ThermoFisher, #23030) and protease inhibitor (Cell Signalling Technologies, #5871). Protein concentrations were determined using the BCA assay to ensure equal loading. […] The membranes were immunoblotted with primary antibodies, overnight at 4° C. […]
# Membranes were then incubated with horseradish peroxidase (HRP)-conjugated secondary antibodies (Rabbit #7074 and Mouse #7076) purchased from Cell Signalling Technologies for 1 hour and the HRP signal was detected using EZ-ECL Enhanced Chemiluminescence Detection Kit for HRP (#20-500-500, Sartorius), and imaged with an Alliance Q9 Advanced (UVITec). […]
# We generated a BRD4-ULKTAC (NZ-147) by conjugating (+)-JQ1 (BRD4-targeting moiety) to NZ-60 via a PEG linker (FIG. 8A). CAL51 cells (a triple negative breast cancer cell line) were treated with DMSO, (+)-JQ1 or NZ-147 at 100 nM for 72 hours then lysed and analysed by Western blot (FIG. 8B). […]
# A549 cells = experiment: Cell viability assay (CellTiter Glo), A549; type: cell-based, human; conditions: A549, increasing concentrations
# Procedure: A549 and H1299 cells were seeded in OptiPlate-384 well plates and treated with increasing concentrations of (+)-JQ1 or NZ-147 from 0 μM to 10 µM in Example 8 and with increasing concentrations of NZ-175 from 0 µM to 10 µM in Example 9. Cells were treated for 120 h before using the luciferase based CellTiter Glo assay (Promega) to measure cell viability.
# Cell viability assay was performed in A549 and H1299 cells, which were treated with different concentrations of (+)-JQ1 or NZ-147 at 100 nM for 72 hours (FIG. 10B).
# Cell viability assay was performed in A549 and H1299 cells, which were treated with different concentrations of NZ-147 at 100 nM for 72 hours (FIG. 16B).
smiles,measurement,setting,value
"Cc1sc2c(c1C)C(c1ccc(Cl)cc1)=N[C@@H](CC(=O)NCCOCCOCCOCCn1cc(COc3ccc([C@@H](NC(=O)Nc4cc(C(F)(F)F)cc(C(F)(F)F)c4)C(=O)Nc4ccc(F)cc4F)cc3)nn1)c1nnc(C)n1-2 [NZ-147, (R)-2-(3-(3,5-bis(trifluoromethyl)phenyl)ureido)-2-(4-((1-(1-((S)-4-(4-chlorophenyl)-2,3,9-trimethyl-6H-thieno[3,2-f][1,2,4]triazolo[4,3-a][1,4]diazepin-6-yl)-2-oxo-6,9, 12-trioxa-3-azatetradecan-14-yl)-1H-1,2,3-triazol-4-yl)methoxy)phenyl)-N-(2,4-difluorophenyl) acetamide]",levels of MAX,MAX,reduced
same,percentage of live cells,A549 cells,dose-dependent decrease in the percentage of live cells
